Columns and labels:
[1] = target: T1, human PPAR δ (Homo sapiens, UniProt Q03181); assay: Luciferase assay using human PPAR δ (Gal4-PPAR chimeric receptor reporter in CV-1 cells); format: cell-based; conditions: relative to 30 μM carbacyclin defined as 1, 42 hours
T1 construct: expressed in transfected cells; host or cells: CV-1 cells
T1 sequence (Q03181 139-441): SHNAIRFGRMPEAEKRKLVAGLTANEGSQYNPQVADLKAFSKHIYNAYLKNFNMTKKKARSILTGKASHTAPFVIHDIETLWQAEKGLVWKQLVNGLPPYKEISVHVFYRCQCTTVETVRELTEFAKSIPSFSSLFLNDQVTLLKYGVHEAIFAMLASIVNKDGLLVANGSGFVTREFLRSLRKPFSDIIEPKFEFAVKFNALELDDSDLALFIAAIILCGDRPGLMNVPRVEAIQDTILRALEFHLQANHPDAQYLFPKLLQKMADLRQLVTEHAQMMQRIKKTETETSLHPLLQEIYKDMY

[2] = test system: 7-weeks old male mice; assay: Lowering effect of blood cholesterol and blood lipid in mice loaded with high cholesterol diets; format: in vivo; conditions: high cholesterol diet mice, plasma, vehicle administration group defined as 100%
Protocol: High cholesterol diets (CRF-1 solid pellet mixed of 5.5% peanut oil, 1.5% cholesterol, 0.5% cholic acid, Oriental Bio Service) are loaded to 7-weeks old male mice for six days and then the body weight of food-deprived […] are measured, the following various parameter levels are measured. The measurement items are LDL, HDL, TG level, NEFA, and TC level. Mice are divided into five per group based on TC level and the division was performed without bias in the average of other parameters. From the next day to six days in a row, the suspended solution of the compounds in vehicle (0.5% methylcellulose aqueous solution) are orally compellingly administered once daily and the loading of high cholesterol diets is continued. After the next day of termination of final administration (the 7th day of administration onset), plasma lipid (TG HDL, LDL, NEFA, TC level) is measured.
The relative activity of the compounds of the present invention was calculated under the condition that the value of vehicle administration group was defined as 100%. And then HDL cholesterol elevating effect and LDL cholesterol lowering effect of the compound prepared in Example 33 are shown in Table 2.

[3] = dose 3 mg/kg orally once daily for six days
[4] = dose 10 mg/kg orally once daily for six days
[5] = dose 30 mg/kg orally once daily for six days

Cc1sc(N2CCC(C(F)(F)F)CC2)nc1CCOc1cccc(CC(=O)O)c1F [Example 33, [2-fluoro-3-(2-{5-methyl-2-[4-(trifluoromethyl)piperidin-1-yl]-1,3-thiazol-4-yl}ethoxy)phenyl]acetic acid]
Fold increase of transcriptional activation ([1]; final concentration 0.1 μM): 0.47 | Fold increase of transcriptional activation ([1]; final concentration 0.3 μM): 1.08 | Fold increase of transcriptional activation ([1]; final concentration 1.0 μM): 1.23 | HDL cholesterol elevating effect [2, 3]: 150.0% | LDL cholesterol lowering effect [2, 3]: 82.5% | HDL cholesterol elevating effect [2, 4]: 162.7% | LDL cholesterol lowering effect [2, 4]: 75.7% | HDL cholesterol elevating effect [2, 5]: 157.3% | LDL cholesterol lowering effect [2, 5]: 72.3%

— patent publication US7560475B2, “Phenylacetic acid derivative, process for producing the same, and use” (Ono Pharmaceutical Co., Ltd., priority 2003, dated 2009)
